# Data as given in ChEMBL document CHEMBL1201862, “PubChem BioAssay data set” (2004).
# The source made the active and inactive calls.
# Key:
# Coagulation factor XII = target: T1, Coagulation factor XII (Homo sapiens, UniProt P00748); type: functional;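 also: activated factor XIIa alpha cleaving a fluorogenic AMC peptide substrate; inhibitor potency from loss of enzyme activity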
# T1 sequence (P00748 whole entry): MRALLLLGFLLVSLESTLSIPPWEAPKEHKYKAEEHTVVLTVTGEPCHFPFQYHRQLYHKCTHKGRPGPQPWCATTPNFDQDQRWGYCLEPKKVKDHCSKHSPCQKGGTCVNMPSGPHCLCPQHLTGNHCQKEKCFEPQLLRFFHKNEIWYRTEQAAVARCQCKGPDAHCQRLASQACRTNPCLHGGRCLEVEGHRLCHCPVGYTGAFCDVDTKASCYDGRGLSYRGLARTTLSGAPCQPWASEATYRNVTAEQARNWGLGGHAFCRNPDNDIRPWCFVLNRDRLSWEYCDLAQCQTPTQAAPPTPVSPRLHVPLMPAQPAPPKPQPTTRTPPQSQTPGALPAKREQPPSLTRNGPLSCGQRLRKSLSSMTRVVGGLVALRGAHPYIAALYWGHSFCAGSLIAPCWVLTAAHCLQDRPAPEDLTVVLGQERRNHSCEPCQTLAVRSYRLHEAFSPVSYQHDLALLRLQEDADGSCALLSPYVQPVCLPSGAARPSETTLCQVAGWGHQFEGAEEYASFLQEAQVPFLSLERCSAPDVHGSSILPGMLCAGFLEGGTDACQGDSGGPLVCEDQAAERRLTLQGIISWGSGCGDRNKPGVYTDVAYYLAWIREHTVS
# [1] = target: T2, Microphthalmia-associated transcription factor (Homo sapiens, UniProt O75030); assay: reducers of TRPM1 reporter luminescence, concentration series – cell-based, SK-MEL-5, cherry-picked, set 3, MITF inhibitor project, dose response (AID 493073); type: functional;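 also: SK-MEL-5 melanoma cells with luciferase driven by the MITF target TRPM1 promoter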
# T2 sequence (O75030 whole entry): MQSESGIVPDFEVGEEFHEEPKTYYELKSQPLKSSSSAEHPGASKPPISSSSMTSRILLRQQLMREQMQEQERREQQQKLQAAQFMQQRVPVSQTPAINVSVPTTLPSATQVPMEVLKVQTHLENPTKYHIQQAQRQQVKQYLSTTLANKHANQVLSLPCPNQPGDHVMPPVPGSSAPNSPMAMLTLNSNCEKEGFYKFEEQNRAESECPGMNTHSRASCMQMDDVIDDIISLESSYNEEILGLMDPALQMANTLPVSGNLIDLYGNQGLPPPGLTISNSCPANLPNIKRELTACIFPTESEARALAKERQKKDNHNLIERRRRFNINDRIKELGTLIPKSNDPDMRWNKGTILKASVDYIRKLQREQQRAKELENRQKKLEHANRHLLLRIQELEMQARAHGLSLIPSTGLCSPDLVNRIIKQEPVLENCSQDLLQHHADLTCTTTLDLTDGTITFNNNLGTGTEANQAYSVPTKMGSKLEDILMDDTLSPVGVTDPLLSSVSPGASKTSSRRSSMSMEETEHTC
# Paired box protein Pax-8 = Paired box protein Pax-8 (Homo sapiens, UniProt Q06710); assay: PAX8 transcriptional activity inhibition in RMG-I – RMG-I cells, luciferase, cherry-pick, dose response (AID 687027); type: functional, cell-based;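 also: luciferase reporter driven by Pax8 target thyroperoxidase promoter measured by SteadyGlo luminescence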
# Caspase-6 = target: T3, Caspase-6 (Homo sapiens, UniProt P55212); assay: inhibition of CASP6 peptide cleavage – biochemical, VEID-R110 fluorescence, cherry-pick, dose response (AID 720632)
# T3 sequence (P55212 whole entry): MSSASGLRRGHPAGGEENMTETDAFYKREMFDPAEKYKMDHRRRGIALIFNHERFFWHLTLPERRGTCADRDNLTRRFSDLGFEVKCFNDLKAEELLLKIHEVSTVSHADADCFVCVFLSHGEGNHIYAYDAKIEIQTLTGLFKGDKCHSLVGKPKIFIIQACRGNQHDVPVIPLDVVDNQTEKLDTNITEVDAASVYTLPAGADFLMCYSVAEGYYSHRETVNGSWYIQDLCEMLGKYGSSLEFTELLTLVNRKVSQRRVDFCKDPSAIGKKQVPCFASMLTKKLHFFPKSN
# [2] = THP-1 cell cytotoxicity, dose response, cytotoxicity control for non-replicating M. tuberculosis project (AID 489025); type: functional
# [3] = Vero E6 cell cytotoxicity, dose response, cytotoxicity control for non-replicating M. tuberculosis project, secondary assay (AID 492998); type: functional, VeroE6; details: Vero C1008
# [4] = microbe, parasite or virus in culture; type: functional; details: Mycobacterium tuberculosis
# cells = type: functional
# HEK293 [5] = assay: cells; details: Homo sapiens
# HEK293 [6] = assay: cells; details: Homo sapiens; remark: listed apart in the source
# Chain of Paired box protein Pax-8 (Q06710 whole entry): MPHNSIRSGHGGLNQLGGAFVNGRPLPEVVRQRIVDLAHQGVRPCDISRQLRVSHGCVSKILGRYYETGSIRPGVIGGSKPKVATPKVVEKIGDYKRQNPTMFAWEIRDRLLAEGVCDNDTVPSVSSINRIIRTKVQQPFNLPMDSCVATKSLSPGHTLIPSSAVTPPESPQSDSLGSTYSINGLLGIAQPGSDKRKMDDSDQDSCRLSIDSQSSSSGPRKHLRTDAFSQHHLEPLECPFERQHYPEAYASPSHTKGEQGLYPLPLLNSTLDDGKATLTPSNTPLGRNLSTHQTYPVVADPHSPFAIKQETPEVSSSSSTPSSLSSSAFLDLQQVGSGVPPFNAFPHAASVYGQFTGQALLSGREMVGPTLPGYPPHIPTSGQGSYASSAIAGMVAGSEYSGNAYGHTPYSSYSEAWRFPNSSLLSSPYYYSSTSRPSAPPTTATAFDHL
Structure (SMILES),IC50 (Coagulation factor XII),CC50 [2],CC50 [3],IC50 (cells),further results
O=C1c2oc3ccccc3c(=O)c2C(c2cccc(F)c2)N1CCCO (centres undefined),> 50 µM (inactive),,,,
CC(=O)N1CCc2c(sc(NC(=O)c3ccc([N+](=O)[O-])o3)c2C#N)C1,,,,,AC50 [1]: 2.22 µM (active); AC50 (Paired box protein Pax-8): 2.71 µM (active); AC50 (Caspase-6): 26.6 µM (active)
CSc1ccc(C(=O)C2CCCN(C(=O)c3ccc4c(c3)no[n+]4[O-])C2)cc1 (centres undefined),,39.4 µM (active),13.7 µM (active),1.5 µM (active),CC50 [4]: 10.8 µM (active)
CCOC(=O)CSc1nc(N)c(C#N)c(-c2ccc(OCC)cc2)c1C#N,,,,,EC50 (HEK293 [5]): > 59.6 µM (inactive); EC50 (HEK293 [6]): > 59.6 µM (inactive)
O=C(Nc1cc(=O)[nH]c2ncnn12)c1ccco1,> 50 µM (inactive),,,,
O=C(NNC(=O)c1cnccn1)c1ccc(Cl)c(Cl)c1,,14.6 µM (active),12.5 µM (active),6.17 µM (active),
